Results: ChEMBL document CHEMBL4610024, “The ceramide analogue N-(1-hydroxy-3-morpholino-1-phenylpropan-2-yl)decanamide induces large lipid droplet accumulation and highlights the effect of LAMP-2 deficiency on lipid droplet degradation” (Bioorg Med Chem Lett, 2020)
The source made the active and inactive calls. The calls are words filed in the database; no cut-off is given here.

How the values were obtained:
L929 [1] = assay: Induction of autophagy in CRISPR/Cas9-mediated LAMP2 knocked out mouse L cells assessed as formation of LC3 puncta rim around large autophagosome at 40 uM measured after 17 hrs by Hoechst 33342 staining based assay; assay type: functional, cell-based
[2] = target: T1, Lysosome-associated membrane glycoprotein 2 (Mus musculus) (UniProt P17047); assay: Induction of LAMP2-mediated lipid droplet degradation in mouse L cells assessed as increase in length of long axis of lipid droplet at 40 uM measured after 17 hrs by transmission electron microscopy analysis; assay type: cell-based; conditions: L929
T1 sequence (whole entry): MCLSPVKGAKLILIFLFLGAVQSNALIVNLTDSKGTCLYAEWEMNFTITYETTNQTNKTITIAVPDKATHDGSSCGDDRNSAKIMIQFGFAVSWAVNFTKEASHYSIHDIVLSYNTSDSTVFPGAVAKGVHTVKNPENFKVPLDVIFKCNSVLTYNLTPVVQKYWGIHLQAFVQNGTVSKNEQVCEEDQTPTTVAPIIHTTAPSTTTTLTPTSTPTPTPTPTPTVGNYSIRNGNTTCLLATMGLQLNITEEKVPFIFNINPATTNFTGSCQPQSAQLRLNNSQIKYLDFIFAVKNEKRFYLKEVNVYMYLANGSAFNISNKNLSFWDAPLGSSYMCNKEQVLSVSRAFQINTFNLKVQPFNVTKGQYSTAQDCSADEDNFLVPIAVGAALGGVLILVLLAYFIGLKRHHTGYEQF

L929 [3] = assay: Induction of autophagy in CRISPR/Cas9-mediated LAMP2 knocked out mouse L cells assessed as formation of LC3 puncta rim in other part of cell at 40 uM measured after 17 hrs by Hoechst 33342 staining based assay; assay type: functional
[4] = target: T1, Lysosome-associated membrane glycoprotein 2 (Mus musculus); assay: Induction of LAMP2-mediated lipid droplet enlargement in mouse L cells at 40 uM measured after 17 hrs by LipiDye staining based assay; assay type: cell-based; conditions: L929
L929 [5] = assay: Induction of lipid droplet degradation in CRISPR/Cas9-mediated LAMP2 knocked out mouse L cells assessed as decrease in number of lipid droplet with long axis exceeding 1 um at 40 uM measured after 17 hrs by transmission electron microscopy analysis; assay type: functional, cell-based
L929 [6] = assay: Induction of large autophagosome formation in CRISPR/Cas9-mediated LAMP2 knocked out mouse L cells assessed as accumulation of abnormal multilamellar bodies at 40 uM measured after 17 hrs by transmission electron microscopy analysis; assay type: functional, cell-based
L929 [7] = assay: Induction of large autophagosome formation in CRISPR/Cas9-mediated LAMP2 knocked out mouse L cells assessed as loosened multilamellar bodies at 40 uM measured after 17 hrs by transmission electron microscopy analysis; assay type: functional, cell-based
L929 [8] = assay: Induction of large autophagosome formation in CRISPR/Cas9-mediated LAMP2 knocked out mouse L cells assessed as degradation of multilamellar bodies at 40 uM measured after 17 hrs by transmission electron microscopy analysis; assay type: functional, cell-based
L929 [9] = assay: Induction of large autophagosome formation in CRISPR/Cas9-mediated LAMP2 knocked out mouse L cells assessed as decrease in multilamellar bodies layers at 40 uM measured after 17 hrs by transmission electron microscopy analysis; assay type: functional, cell-based
[10] = target: T1, Lysosome-associated membrane glycoprotein 2 (Mus musculus); assay: Induction of LAMP2-mediated autophagy in mouse L cells assessed as increase in LC3 puncta at 40 uM measured after 17 hrs by Hoechst 33342 staining based assay; assay type: cell-based; conditions: L929
L929 [11] = assay: Induction of lipid droplet degradation in CRISPR/Cas9-mediated LAMP2 knocked out mouse L cells at 40 uM measured after 17 hrs by LipiDye staining based assay; assay type: functional, cell-based
L929 [12] = assay: Induction of autophagy in CRISPR/Cas9-mediated LAMP2 knocked out mouse L cells assessed as increase in […] puncta at 40 uM measured after 17 hrs by Hoechst 33342 staining based assay; assay type: functional, cell-based

- Activity [2]: Active
- Activity [4]: Active
- Activity [10]: Active
SMILES: CCCCCCCCCC(=O)NC(CN1CCOCC1)C(O)c1ccccc1 (configuration not stated)
- Activity (L929 [1]): Active
- Activity (L929 [3]): inactive
- Activity (L929 [5]): inactive
- Activity (L929 [6]): Active
- Activity (L929 [7]): Active
- Activity (L929 [8]): Active
- Activity (L929 [9]): Active
- Activity (L929 [11]): inactive
- Activity (L929 [12]): Active
